How the values were obtained:
[1] = UV-Vis photoswitching and photostationary states (PSS); type: physicochemical
Source text: The photoswitching and thermal relaxation properties of one of the lead compounds, PHOTAC-I-3, is shown in FIG. 3A-E. The optimal wavelength to switch to the cis isomer is 390 nm but similar photostationary states (PSS) can be obtained between 380 and 400 nm (FIG. 3C). At 390 nm a PSS of >90% cis could be obtained. Rapid cis to trans isomerization could be achieved by irradiation with wavelengths >450 nm, achieving PSS of ca >70% trans (FIG. 3C). […] Multiple cycles of photochemical isomerization are possible, in keeping with the fatigue-resistance of azobenzene photoswitches (FIG. 3E).
UV-Vis spectrometry was performed on a Varian Cary 60 UV-Visible Spectrophotometer using disposable BRAND UV-Cuvette Disposable Spectrophotometer/Photometer Ultra-Micro Cuvettes, BrandTech (10 mm light path), an Agilent Technologies PCB 1500 Water Peltier system for temperature control and samples were irradiated with a cairn research Optoscan Monochromator with Optosource High Intensity Arc Lamp equipped with a 75 W UXL-S50A lamp from USHIO Inc. Japan and set to 15 nm full width at half maximum.

RS4;11 lymphoblast cells = test: Cell viability assay (Promega MTS), dark or pulsed irradiation; type: cell-based, human; conditions: 72 h; for EC50: Homo sapiens
Description: Optical control of BRD2-4 with PHOTACs. To assess the biological activity of the PHOTACs, their effect on the viability of RS4;11 lymphoblast cells was tested. Cells were treated in a 96-well plate with increasing concentrations of PHOTACs and were either irradiated with 390 nm light pulses (100 ms every 10 s) for 72 h or incubated with the compound in the dark. Subsequently, cell viability assays (Promega MTS) were performed, as previously described.
Cell culture. The human acute lymphoblastic leukemia RS4;11 (ATCC® CRL-1873™) cell line was purchased from the American Type Culture Collection and cultured in RPMI1640 medium (Gibco) with 10% fetal bovine serum (FBS) and 1% penicillin/streptomycin (PS) in a humidified incubator at 37° C. with 5% CO2 in air. Cells were divided every 2-3 days and the concentration was maintained between 1×10^5 and 1×10^6 cells/mL. For the experiments compounds were serially diluted in RPMI160 without the dye phenol red (Gibco) to reduce the influence of the dye by absorption. Azobenzene stocks and dilutions were strictly kept in the dark and prepared under red light conditions.
Colorimetric MTT Assays. The activity of dehydrogenase enzymes in metabolically active cells, as a quantitative measurement for cytotoxicity and proliferation, was determined by colorimetric measurement of the reduction of [3-(4,5-dimethylthiazol-2-yl)-5-(3-carboxymethoxyphenyl)-2-(4-sulfophenyl)-2H-tetrazolium (MTS) to formazan. The absorbance of formazan at 490 nm was measured on a FLUOstar Omega microplate reader (BMG Labtech).
Cells were treated with different concentrations, ranging from 10 μM to 1 nM, of our compounds and incubated on a 96-well plate for 72 h. They were placed in light-proof boxes and exposed to the lighting conditions specified in the experiment for 72 h. Next, 10 μL of Promega CellTiter 96® AQueous One Solution Reagent was added to each well and incubated for further 4-7 hours. The absorbance at 490 nm was then recorded with a 96-well plate reader.
LED illumination. For illumination of the cells we used the cell disco system as previously described in the literature^[25]. 390 nm 5 mm LEDs were purchased from Roithner Lasertechnik. Cells were preirradiated for 1 min at 390 nm, followed by 100 ms pulses every 10 s in 96- or 6-well plates.

BRD2 = biological target: T1, BRD2 (Homo sapiens, UniProt P25440); test: Western blot of BRD2 levels in RS4;11 cells; type: cell-based
T1 construct: endogenous in cells; host or cells: RS4;11 (ATCC CRL-1873)
T1 sequence (P25440 whole entry): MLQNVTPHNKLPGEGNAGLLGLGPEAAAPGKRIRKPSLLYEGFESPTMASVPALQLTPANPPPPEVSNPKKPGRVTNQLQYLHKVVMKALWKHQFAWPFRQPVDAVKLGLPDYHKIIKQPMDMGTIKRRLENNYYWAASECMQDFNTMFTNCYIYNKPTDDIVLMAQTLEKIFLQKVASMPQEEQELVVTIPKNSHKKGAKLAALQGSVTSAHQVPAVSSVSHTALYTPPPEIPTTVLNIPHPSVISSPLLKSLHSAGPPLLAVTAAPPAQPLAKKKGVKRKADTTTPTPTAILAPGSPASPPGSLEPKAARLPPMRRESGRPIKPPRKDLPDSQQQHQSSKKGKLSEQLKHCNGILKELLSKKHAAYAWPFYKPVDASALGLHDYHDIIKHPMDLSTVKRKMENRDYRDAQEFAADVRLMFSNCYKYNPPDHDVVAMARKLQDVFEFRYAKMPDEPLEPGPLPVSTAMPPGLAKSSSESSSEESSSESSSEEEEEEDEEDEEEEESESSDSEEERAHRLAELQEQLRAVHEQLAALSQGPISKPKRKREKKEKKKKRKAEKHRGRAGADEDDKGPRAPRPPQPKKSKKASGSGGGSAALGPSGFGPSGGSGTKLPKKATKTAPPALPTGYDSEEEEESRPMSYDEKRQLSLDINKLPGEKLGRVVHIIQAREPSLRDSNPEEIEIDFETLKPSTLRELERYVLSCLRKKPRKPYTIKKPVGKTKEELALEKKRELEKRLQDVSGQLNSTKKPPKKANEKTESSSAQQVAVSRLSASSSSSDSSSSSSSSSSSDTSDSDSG
Description: Next, the light dependence of targeted protein degradation was analyzed in RS4;11 cells by western blot analysis of the BET proteins BRD2-4 (FIG. 5). To this end, cells were treated with increasing concentrations of our lead compound, PHOTAC-I-3, for 4 h and pulse-irradiated with 390 nm light (100 ms every 10 s). […] The cereblon-dependent degradation was confirmed by a competition experiment (FIG. 5E), and further validated by siRNA knockdown of cereblon (FIG. 13).
One of the principal advantages of photoswitches over caged compounds is their reversibility.
Cells were incubated with different concentrations of selected compounds. They were placed in a light-proof box and preirradiated for 1 min at 390 nm followed by 100 ms pulses every 10 s or were kept in the dark for 4 h.
Cultured cells were collected by centrifugation and washed twice with cold PBS. The supernatant was removed and each cell pellet was lysed in 100 μL NP40-Cell-Lysis Buffer+0.1% SDS+1 mM PMSF+ protease inhibitor cocktail (Sigma Aldrich) for 30 min on ice, with vortexing at 10-minute intervals. Afterwards, cells were centrifuged at 13.000 rpm for 10 min at 4° C. Samples were stored on ice and the supernatant was collected for protein concentration determination using a Thermofisher Scientific Pierce™ Coomassie Plus (Bradford) Assay Kit.
The samples were diluted each with 5 μL Laemmli sample buffer Invitrogen (NuPAGE LDS Sample Buffer 4×) and 1 μL DTT, heated at 95° C. for 5 min. Respectively 20 μL of each sample was loaded in a lane of a Bio-Rad Mini-PROTEAN TGX precast Gel, 4-20%, used with tris-glycine SDS Running buffer. The gel ran 5 min at 50 V, then 35 min at 140 V. Next step was the electrotransfer to a polyvinylidene difluoride (PVDF) membrane which was carried out using an iBlot™ 2 Dry Blotting System set to the standard program. After the transfer, the membrane was washed with 25 mL TB ST for 5 min and subsequent incubated in 25 mL of blocking buffer (1×TBST+5% nonfat dry milk, Blotto, Santa Cruz Biotechnology) for 1 h at room temperature. […]

Structure (SMILES): COc1cc(/N=N/c2cccc3c2CN(C2CCC(=O)NC2=O)C3=O)cc(OC)c1OCC(=O)NCCCCNC(=O)C[C@@H]1N=C(c2ccc(Cl)cc2)c2c(sc(C)c2C)-n2c(C)nnc21 (stereo partly drawn) [PHOTAC-I-3, 2-((S)-4-(4-chlorophenyl)-2,3,9-trimethyl-6H-thieno[3,2-f][1,2,4]triazolo[4,3-a][1,4]diazepin-6-yl)-N-(4-(2-(4-((E)-(2-(2,6-dioxopiperidin-3-yl)-1-oxoisoindolin-4-yl)diazenyl)-2,6-dimethoxyphenoxy)acetamido)butyl)acetamide]
- optimal wavelength to switch to the cis isomer [1]: 390 nm
- photostationary state (PSS), cis fraction ([1]; at 390 nm): > 90%
- photostationary state (PSS), trans fraction ([1]; irradiation with wavelengths >450 nm): > 70%
- EC50 difference dark vs 390 nM (RS4;11 lymphoblast cells): 7.1 fold
- light dependence of activity in viability assay (RS4;11 lymphoblast cells; dark vs pulsed 390 nm irradiation): largest difference between light and dark activity
- EC50 (RS4;11 lymphoblast cells; RS4-11, light or radiation study, irradiated with 390 nm light pulses (100 ms every 10 s)): 88.5 nM
- EC50 (RS4;11 lymphoblast cells; RS4-11, in the dark): 631 nM
- exposure time after which BRD2 is largely absent (BRD2; 1 μM, 390 nm pulse irradiation): 1.5 h
- cellular BRD2 levels in rescue experiment (BRD2; 1 min 390 nm, then pulse irradiated with 525 nm): initially decreased but, subsequently, recovered faster than when left in the dark
- BRD2 degradation (BRD2; 4 h, 390 nm, compared with BRD3 and BRD4): degraded to a lesser extent and within a narrower concentration range
